According to patent US20240065261A1, “PENETRATING CRYOPROTECTION AGENTS AND METHODS OF MAKING AND USING SAME” (The Research Foundation for The State University of New York, priority 2020, published 2024):
“And” between values parts separate entries of the source, which are not always exact repeats. Equal values may be shown once.

Assays:
[1] = test system: NIH-3T3 cells; assay: Post-thaw total cell recovery of cryopreserved cells (trypan blue exclusion); type: cell-based; settings: ±SEM
Experimental: The delivery of sugar alcohols into cells makes it possible to turn these molecules into intracellular CPAs. […] Total post-thaw cell recovery, defined as the ratio (%) of post-thaw live cells to the number of initially frozen live cells, which provides a more accurate measure of cryoprotective outcome than cell viability, was used to assess the cryoprotective effects of the diesters.
Systematic studies were then performed by incubating the cells (1) with each of diesters 1-4 (10 mM), (2) with unmodified sorbitol, mannitol, xylitol, or erythritol (10 mM), and (3) in medium without any of the diesters or sugar alcohols, at 37° C. for 48 h. The cells treated with diesters 1-4 and the four sugar alcohols were then transferred to freezing media consisting of DMEM, 10% FBS and 400 mM trehalose. The cells incubated with only the medium were divided into two portions, one being directly transferred to the freezing medium containing 400 mM trehalose (control 1) and the other being placed in a different freezing medium consisting of DMEM, 10% FBS and 5% DMSO but without trehalose (control 2). After being frozen at −80° C. for 72 h, the cells were thawed in a warm water bath at 37° C. until ice melted. The post-thaw cells were either immediately analyzed for their survival or were cultured in growth media (DMEM with 10% FBS) for 24 h and 48 h before being analyzed.
Incubation (for cryopreservation). NIH/3T3 cells were seeded into cell culture treated plates (100 mm) at a density of 2×10^4 cells/mL (10 mL/plate), allowed to adhere overnight and then incubated with different sample solutions (10 mL) for 48 hours at 37° C. under 5% CO2. Control cells were incubated with growth medium.
Cryopreservation. At the end of the incubation, the cells were rinsed with PBS (2 mL) and detached using 0.25% trypsin-EDTA (3 mL). The cells were pelleted (200×g, 5 min) and resuspended in growth medium with 400 mM trehalose except for the control-2 group. For control-2 group, cells were resuspended in growth medium with 5% DMSO (v/v). An aliquot of cells of each group was then removed for counting by a DeNovix Celldrop cell counter to obtain prefreeze number of viable cells. The remaining cell suspension was transferred into a 2 mL cryogenic vial. The vials were directly transferred to −80° C. freezer without controlling cooling rate and stored at −80° C. freezer for 3 days. To thaw, cryogenic vials were removed from −80° C. freezer and suspended in a 37° C. water bath until ice melt. To the contents of each vial 1 mL growth medium was added and centrifuged (200×g , 5 min). The supernatant was discarded and cell pellet was resuspended in 1 mL growth cell medium. An aliquot of cell suspension of each group was then removed for counting with a DeNovix Celldrop cell counter to obtain the number of viable cells at 0-hr post-thaw. The remaining cell suspension was split equally and resuspended into two cell culture treated plates (100 mm) with 10 mL growth medium in each plate. The plates were then maintained for either 24 hours or 48 hours at 37° C. under 5% CO2. After being cultured for either 24 hours or 48 hours, the cells were rinsed with PBS (2 mL) and detached using 0.25% trypsin-EDTA (3 mL). The cells were pelleted (200×g, 5 min) and resuspended in growth medium. The cell suspension was then analyzed by DeNovix Celldrop cell counter to obtain number of viable cells at either 24-hr or 48-hr post-thaw.
Trypan Blue Exclusion Assay. For all time points, a sample of cells was mixed 1:1 in 0.4% trypan blue and counted using a DeNovix Celldrop. Cell recovery was calculated as the ratio of viable cells to the number of cells initially frozen.

[2] = test system: NIH-3T3 cells; assay: Post-thaw viability of cryopreserved NIH-3T3 cells (CCK-8), Example 1; type: cell-based; settings: for Post-thaw viability, 24 hours post thaw / Post-thaw viability, 48 hours post-thaw: Table 1
Experimental: Cryopreservation protocol. […] Discarded 95% of the old media and added 0.5 mL new DMEM (pH=7.4) with 10% FBS and 400 mM trehalose (filtered with 0.22 μm filter) and re-suspended the cells. • Transferred the cell culture to cryo-tube and stored the tubes at −80° C. for 3 days. • Thawed the cells at 37° C. in a water bath until ice melted. • Counted the cell density in each cryo-tube with cell counter. • Re-cultured the cells in 96-well plate with fresh DMEM (PH=7.4) with 10% FBS. (while keeping cell density the approximately the same for each well). • Used CCK-8 kit to test the post-thaw viability after certain time.

[3] = test system: 3T3 cells; assay: Cryopreservation, post-thaw recovery rate, Example 3; type: cell-based; settings: incubated with medium only; frozen −80° C. in medium with 5% DMSO
Experimental: Cryopreservation: The cryopreservation effects of EGL-3Pro and EGL-3Phe were tested on 3T3 cells. The cells were incubated with 5 mM or 10 mM EGL-3Pro or 0.5 mM EGL-3Phe or medium only (two control groups) for 72 hours. After incubation, the cells were detached by treating […] pelleted by centrifuging (200×g). The cells were then resuspended in medium with 400 mM trehalose or 5% DMSO (for control 2 group) in cryovials and a small portion of cell suspension were used for counting pre-freeze cell number. The vials were directly put in −80° C. freezer and stored for at least 3 days. The cells were thawed in 37° C. water bath until ice melt, and resuspended in 10 mL fresh medium and pelleted by centrifuging (200×g). The cells were then resuspended in 1 mL fresh medium and counted by cell counter. The recovery rate was obtained by dividing post-thaw lived cell number by pre-freeze lived cell number.

[4] = test system: NIH-3T3 cells; assay: Live/dead fluorescence microscopy of post-thaw cells (calcein-AM / ethidium homodimer-1); type: cell-based; settings: 24 h post-thaw; incubated with 10 mM for 48 h, frozen in media with 400 mM trehalose (FIG. 14)
Experimental: DIC and Fluorescence images capturing. NIH/3T3 cells were treated as the same as for cryopreservation experiment and were thawed in a 37° C. water bath until ice melt. Cells in each vial were then pelleted (200×g, 5 min), re-suspended in 1 mL fresh growth medium and plated into 96 well plate and grown for 24 hours. Each well was washed with sterile PBS (100 μL). Sterile PBS (200 μL) containing 2 μM calcein-AM and 4 μM ethidium homodimer-1 (EthD-1) was then added to each well. The 96-well plate was then incubated in a CO2 incubator at 37° C. for 30 min. Fresh cells without freezing were plated at similar density in 96-well plate as comparison. DIC and fluorescence microscopy images were captured at 509 and 580 nm on Axioplan 2 fluorescent microscope (Zeiss [Carl Zeiss], Thornwood, NY) with an Axiocam MRm camera (Zeiss). Axiovision 4 software (Zeiss) was used for image acquisition. Digital images were processed with ImageJ (imagej.nih.gov/ij/).

[5] = test system: NIH-3T3 cells; assay: Cytotoxicity, CCK-8 cell viability after 48 h incubation
Experimental: Cytotoxicity assays were performed by exposing NIH-3T3 cells to the diesters. Cell viability was determined by using Cell Counting Kit-8 (CCK-8) reagent and a BioTek microplate reader to count the numbers of live and dead cells.
NIH/3T3 cells were seeded into 96-well plates (Fisher brand) at a density of 8,000 cells in 150 μL growth medium per well. The cells were incubated for 24 hours at 37° C. with 5% CO2. After 24 hours all medium was aspired one row at a time and treated with various concentrations of each compound (10 mM, 5 mM, 1 mM, 0.5 mM and 0.1 mM) or carboxylic acid/NaOH (10 mM/5 mM, 5 mM/2.5 mM). The control cells were treated with fresh medium only. The cells were then incubated again for 48 hours at 37° C. with 5% CO2. After incubation, all medium was aspired and replaced with fresh medium and 10% (v/v) CCK-8 reagent and returned to incubate at 37° C. with 5% CO2 for 2 hours. Cell viability was then calculated from the OD value read by a plate reader (Biotek Synergy H1) at wavelength of 450 nm.

[6] = incubated with 10 mM for 48 h, frozen −80° C. 72 h in media with 400 mM trehalose
[7] = Table 3, incubated 36 hours at 5 mM without DMSO, frozen −80° C. 72 hours, 400 mM trehalose, 10% DMSO set as 100%
[8] = Table 3, incubated 36 hours at 10 mM without DMSO, frozen −80° C. 72 hours, 400 mM trehalose, 10% DMSO set as 100%
[9] = incubated with 10% DMSO, reference set as 100%
[10] = Table 2, incubated with 10% DMSO, reference set as 100%
[11] = Table 3, incubated with 10% DMSO, reference set as 100%
[12] = incubated with media only, frozen in media containing 5% DMSO without trehalose
[13] = incubated at 5 mM without DMSO, frozen −80° C. 72 hours, freezing media with 400 mM trehalose, 10% DMSO set as 100%
[14] = incubated at 10 mM without DMSO, frozen −80° C. 72 hours, freezing media with 400 mM trehalose, 10% DMSO set as 100%
[15] = Table 2, incubated 36 hours at 5 mM without DMSO, frozen −80° C. 72 hours, 400 mM trehalose, 10% DMSO set as 100%
[16] = Table 2, incubated 36 hours at 10 mM without DMSO, frozen −80° C. 72 hours, 400 mM trehalose, 10% DMSO set as 100%

## CCC(=O)OC[C@@H](O)[C@H](O)[C@@H](O)COC(=O)CC [XylPr2]
[1]; [6]
  Post-thaw recovery (%) 0-hr: 52.1 ± 4.8%
  Post-thaw recovery (%) 24-hr: 49.7 ± 1.1%
  Post-thaw recovery (%) 48-hr: 90.0 ± 4.3%

## CCCC(=O)OC[C@@H](O)[C@@H](O)[C@H](O)[C@@H](O)COC(=O)CCC [SorbBa2]
[2]; [7]
  Post-thaw viability (%), 24 hours post thaw: 113.4 ± 9.5%
  Post-thaw viability (%), 48 hours post-thaw: 143.3 ± 7.4%
[2]; [8]
  Post-thaw viability (%), 24 hours post thaw: 150.4 ± 1.5%
  Post-thaw viability (%), 48 hours post-thaw: 211.8 ± 2.2%

## C[S+](C)[O-] [DMSO, dimethyl sulfoxide, reference compound]
[2]; [9]
  Post-thaw viability, 24 hours post thaw: 100.0 ± 11.8%
  Post-thaw viability, 48 hours post-thaw: 100.0 ± 4.0%
[2]; [10]
  Post-thaw viability (%), 24 hours post thaw: 100.0 ± 3.6%
  Post-thaw viability (%), 48 hours post-thaw: 100.0 ± 13.4%
[2]; [11]
  Post-thaw viability (%), 24 hours post thaw: 100.0 ± 13.5%
  Post-thaw viability (%), 48 hours post-thaw: 100.0 ± 5.3%
[1]; [12]
  Post-thaw recovery (%) 0-hr: 84.5 ± 3.8%
  Post-thaw recovery (%) 24-hr: 93.9 ± 2.4%
  Post-thaw recovery (%) 48-hr: 196.4 ± 5.7%
[3]
  0-hour post thaw recovery (%): 77.9 ± 3.8%

## OC[C@@H](O)[C@@H](O)[C@H](O)[C@H](O)CO [Mannitol, mannitol, reference compound]
[1]; [6]
  Post-thaw recovery (%) 0-hr: 24.1 ± 1.8%
  Post-thaw recovery (%) 24-hr: 20.8 ± 1.5%
  Post-thaw recovery (%) 48-hr: 41.5 ± 3.0%
[4]
  Post-thaw viability/recovery in fluorescence microscopy images: does not result in higher post-thaw viability than cells treated with media only

## CCC(=O)O [propionic acid]
[5]; up to 10 mM
  Cell viability relative to control groups: ~70%

## CCC(=O)OC[C@@H](O)[C@@H](O)COC(=O)CC [EryPr2]
[1]; [6]
  Post-thaw recovery (%) 0-hr: 48% and 47.9 ± 3.4%
  Post-thaw recovery (%) 24-hr: 42.6 ± 2.6%
  Post-thaw recovery (%) 48-hr: 72% and 71.6 ± 3.9%

## O=C(OCC(COC(=O)[C@@H]1CCCN1)OC(=O)[C@@H]1CCCN1)[C@@H]1CCCN1 [GLC3P]
[2]; [13]
  Post-thaw viability, 24 hours post thaw: 130.9 ± 5.3%
  Post-thaw viability, 48 hours post-thaw: 143.8 ± 4.2%
[2]; [14]
  Post-thaw viability, 24 hours post thaw: 174.7 ± 6.9%
  Post-thaw viability, 48 hours post-thaw: 220.4 ± 5.5%

## OC[C@@H](O)[C@@H](O)CO [Erythritol, erythritol, reference compound]
[1]; [6]
  Post-thaw recovery (%) 0-hr: 33.5 ± 2.7%
  Post-thaw recovery (%) 24-hr: 26.0 ± 0.6%
  Post-thaw recovery (%) 48-hr: 42.3 ± 1.2%

## OC[C@@H](O)[C@@H](O)[C@H](O)[C@@H](O)CO [Sorbitol, sorbitol, reference compound]
[1]; [6]
  Post-thaw recovery (%) 0-hr: 32.8 ± 3.2%
  Post-thaw recovery (%) 24-hr: 28.4 ± 2.1%
  Post-thaw recovery (%) 48-hr: 50.8 ± 3.5%
[4]
  Post-thaw viability/recovery in fluorescence microscopy images: does not result in higher post-thaw viability than cells treated with media only

## OC[C@@H](O)[C@H](O)[C@@H](O)CO [Xylitol, xylitol, reference compound]
[1]; [6]
  Post-thaw recovery (%) 0-hr: 24.6 ± 2.4%
  Post-thaw recovery (%) 24-hr: 22.1 ± 2.1%
  Post-thaw recovery (%) 48-hr: 44.3 ± 4.7%

## CCCC(=O)O [butyric acid]
[5]; at 5 mM
  Cell viability relative to control groups: ~50%
[5]; at 10 mM
  Cell viability relative to control groups: ~40%

## O=C(OC[C@H](OC(=O)[C@@H]1CCCN1)[C@@H](OC(=O)[C@@H]1CCCN1)[C@H](OC(=O)[C@@H]1CCCN1)[C@@H](COC(=O)[C@@H]1CCCN1)OC(=O)[C@@H]1CCCN1)[C@@H]1CCCN1 [SBT6P]
[2]; [15]
  Post-thaw viability (%), 24 hours post thaw: 33.3 ± 1.4%
  Post-thaw viability (%), 48 hours post-thaw: 66.2 ± 2.0%
[2]; [16]
  Post-thaw viability (%), 24 hours post thaw: 34.0 ± 3.5%
  Post-thaw viability (%), 48 hours post-thaw: 69.6 ± 6.5%
